# Measurements as given in patent US9549965B2, “Pharmaceutical composition for treating a microbial infection” (HELPERBY THERAPEUTICS LIMITED, priority 2010, dated 2017).
# Counter-ions that a name gives are not always drawn.
# Key:
# stationary phase E. coli = assay: Bactericidal activity against stationary phase E. coli (CFU counts); assay type: cell-based, Escherichia coli; conditions: for log reduction at 6.25 µg/mL / log reduction at 12.5 µg/mL / log reduction at 25 µg/mL: Escherichia coli, read-out: Log kill
# Procedure: (§1) Escherichia coli K12; Gram negative; Reference strain.
# (§2) Bacteria were grown in 10 ml of nutrient broth (No. 2 (Oxoid)) overnight at 37° C., with continuous shaking at 120 rpm. The overnight cultures were diluted (1000×) in 100 ml of growth medium and then incubated without shaking for 10 days. Viability of the bacteria was estimated by colony forming unit (CFU) counts at 2 hour intervals at the first 24 hours and at 12-24 hours afterwards. From serial 10-fold dilutions of the experimental cultures, 100 μl samples were added to triplicate plates of nutrient agar plates (Oxoid) and blood agar plates (Oxoid). Colony forming units (CFU) were counted after incubation of the plates at 37° C. for 24 hours.
# (§3) Cultures incubated for more than 24 hours are in the stationary phase. For drug screening, 5-6 day old stationary phase cultures were used.
# (§4) Different concentrations of each test compound were incubated with stationary phase cultures (5-6 day cultures) in 96 well plates for 24 or 48 hours. Bactericidal activity was then determined by taking CFU counts of the resulting cultures, as described above.
# log phase E. coli [1] = assay: MIC against log phase E. coli; assay type: cell-based, Escherichia coli
# Procedure: as §1
# (§5) The above-described overnight cultures were diluted (1000×) with iso-sensitest broth. The cultures were then incubated at 37° C. with shaking for 1-2 hours to reach log CFU 6, which served as log phase cultures.
# (§6) The bactericidal activity of the drugs against log phase cultures were determined by minimal inhibitory concentration (MIC) of the drugs, which is defined as the lowest concentration which inhibits visible growth. Different concentrations of each test compound were incubated with the log-phase cultures in 96 well plates for 24 hours. Bactericidal activity was then examined by taking a spectrophotometer reading (using a plate reader) at 405 nm.
# log phase E. coli [2] = assay: Chequerboard analysis with polymyxin E against log phase E. coli; assay type: cell-based, Escherichia coli; conditions: for MIC: Escherichia coli
# Procedure: as §1, §5, §6
# [3] = system: stationary phase S. aureus; assay: Bactericidal activity against stationary phase S. aureus (CFU counts); assay type: cell-based, Staphylococcus aureus; conditions: Staphylococcus aureus, read-out: Log Kill; for log reduction at 6.25 µg/mL: 6.25 μg/ml; for log reduction at 12.5 µg/mL: 12.5 μg/ml; for log reduction at 25 µg/mL: 25 μg/ml
# Procedure: Staphylococcus aureus (Oxford strain); Gram positive; Reference strain.
# as §2, §3, §4
# persistent E. coli = assay: Bactericidal activity against persistent E. coli selected by gentamicin; assay type: cell-based, Escherichia coli; conditions: Escherichia coli, read-out: Log Kill
# Procedure: as §1
# An antibiotic (gentamicin) was added to 5-6 day stationary-phase cultures to the final concentration of 50 to 100 μg/ml for 24 hours. After 24 hours of antibiotic treatment, the cells are washed 3 times with phosphate buffered saline (PBS), and then resuspended in PBS. The surviving bacterial cells are used as persisters. Viability is estimated by CFU counts. The persisters were then used in measurements of bactericidal activity for test compounds.
# Different concentrations of each test compound were incubated with the (persister) cell suspension in 96 well plates for various periods of time (24 and 48 hours). Bactericidal activity was then determined by taking CFU counts of the resulting cultures, as described above.
# [4] = Escherichia coli, read-out: MIC
Structure (SMILES),MIC (log phase E. coli [1]; [4]),log reduction at 6.25 µg/mL (stationary phase E. coli; 6.25 μg/ml),log reduction at 12.5 µg/mL (stationary phase E. coli; 12.50 μg/ml),log reduction at 25 µg/mL (stationary phase E. coli; 25.00 μg/ml),log reduction at 6.25 µg/mL [3],log reduction at 12.5 µg/mL [3],log reduction at 25 µg/mL [3],other results
CCCCCCc1ccc(O)cc1O.Nc1c2ccccc2nc2ccccc12 [Acrisorcin],–,–,–,–,–,–,–,Log Kill (stationary phase E. coli; 6.25 μg/ml): 6.14; Log Kill (stationary phase E. coli; 12.50 μg/ml): 6.14; Log Kill (stationary phase E. coli; 25.00 μg/ml): 6.14; MIC (log phase E. coli [1]): — (— signifies MIC higher than 50 μg/ml)
"CC(COc1ccccc1)N(CCCl)Cc1ccccc1 (stereo not drawn) [HT00800157, Phenoxybenzamine Hydrochloride]",–,–,–,–,–,–,–,MIC (log phase E. coli [2]; alone): > 64 µg/mL; MIC (log phase E. coli [2]; in combination with polymyxin E at 0.06 μg/ml): 64 µg/mL; MIC (log phase E. coli [2]; in combination with polymyxin E at 0.25 μg/ml): 1 µg/mL; spectrophotometer reading (log phase E. coli [2]; HT00800157 1 μg/ml alone): 1.52; spectrophotometer reading (log phase E. coli [2]; HT00800157 2 μg/ml alone): 1.53; spectrophotometer reading (log phase E. coli [2]; HT00800157 4 μg/ml alone): 1.60; spectrophotometer reading (log phase E. coli [2]; HT00800157 8 μg/ml alone): 1.56; spectrophotometer reading (log phase E. coli [2]; HT00800157 16 μg/ml alone): 1.56; spectrophotometer reading (log phase E. coli [2]; HT00800157 32 μg/ml alone): 1.57; spectrophotometer reading (log phase E. coli [2]; HT00800157 64 μg/ml alone): 1.60
Oc1ccc(O)cc1 [Hydroquinone],> 50 µg/mL,6.14,6.14,6.14,6.15,6.15,6.15,–
C1CCC(C(CC2CCCCN2)C2CCCCC2)CC1 (stereo not drawn) [Perhexiline maleate],10 µg/mL,–,–,–,6.15,6.15,6.15,log reduction at 6.25 µg/mL (persistent E. coli; 6.25 μg/ml): -0.01; log reduction at 12.5 µg/mL (persistent E. coli; 12.5 μg/ml): 0.04; log reduction at 25 µg/mL (persistent E. coli; 25 μg/ml): 6.21

# Second part, led by results:
MIC (log phase E. coli [1]; [4]),Structure (SMILES),log reduction at 6.25 µg/mL (stationary phase E. coli; 6.25 μg/ml),log reduction at 12.5 µg/mL (stationary phase E. coli; 12.50 μg/ml),log reduction at 25 µg/mL (stationary phase E. coli; 25.00 μg/ml),log reduction at 6.25 µg/mL [3],log reduction at 12.5 µg/mL [3],log reduction at 25 µg/mL [3],other results
> 50 µg/mL,COc1cccc2c1C(=O)c1c(O)c3c(c(O)c1C2=O)C[C@@](O)(C(=O)CO)C[C@@H]3O[C@H]1C[C@H](N)[C@H](O)[C@H](C)O1 [Doxorubicin],6.14,6.14,6.14,–,–,–,–
> 50 µg/mL,COC(=O)C1=C(C)NC(C)=C(C(=O)OCC(C)C)C1c1ccccc1[N+](=O)[O-] (stereo not drawn) [Nisoldipine],–,–,–,0,6.15,6.15,–
